PubChem BioAssay (NCI)
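Following 48 hours of exposure in 96-well plates, responses at five concentrations were used to interpolate endpoints linearly. Definition used: TGI = concentration required for complete inhibition of growth.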

These molecules were tested on RXF 393 renal (assay: NCI tumour cell line growth inhibition, 48 h).
With `CC12Nc3c(Cl)cc(Cl)cc3N1C(=O)c1ccccc12` (configuration not stated) the TGI was over 100 µM. In the case of `Nc1cc(Cl)cc2cc(Cl)cnc12`, the TGI is reported as over 100 µM. `COC(=O)/C(C)=N/NC(=S)SC` showed a TGI of 97 µM. For `O=C(/C=C/c1cccc([N+](=O)[O-])c1)N1CCN(CCOC(c2ccccc2)c2ccccc2)CC1`, the TGI was over 100 µM. Molecule `CC(=O)OCC1OC(NC(=S)Nn2c(=O)[nH]c3ccccc3c2=O)C(OC(C)=O)C(OC(C)=O)C1OC(C)=O` (configuration not stated) has a TGI of over 100 µM. For `Cc1ccc2c(c1)C(=O)C1(C2)Cc2c(C)cccc2C1=O` (configuration not stated), the TGI was over 100 µM. In the case of `CC1=NN(c2cccc(S(=O)(=O)O)c2)C2(C1)C(Cl)C(=O)N2c1nc2ccccc2s1` (configuration not stated), the TGI is reported as 22.8 µM. `C/C(Cl)=N/OC(=O)Nc1ccc(F)c([N+](=O)[O-])c1` showed a TGI of 25.4 µM. In the case of `COC(=O)C1C2OC(C)(C)OC2CN1S(=O)(=O)c1ccc(C)cc1` (configuration not stated), the TGI is reported as over 100 µM. In the case of `COc1ccc(CNc2ccn(C3OC(CO)C(O)C3O)c(=O)n2)cc1` (configuration not stated), the TGI is reported as over 100 µM. `O=C1CSC(c2ccccc2)N1c1nc2cc3sc(N4C(=O)CSC4c4ccccc4)nc3cc2s1` (configuration not stated) gave a TGI of over 100 µM. With `C[C@]12CCC(O)CC1=CC[C@@H]1[C@@H]2CC[C@]2(C)C(O)[C@H](n3ccnc3)C[C@@H]12` (some centres not stated) the TGI was over 100 µM. With `O=C(CC(O)(C(F)(F)F)C(F)(F)F)C(c1ccccc1)C(O)(C(F)(F)F)C(F)(F)F` (configuration not stated) the TGI was 25.2 µM. `CCOC(=O)/C(C#N)=C/Nc1c(C)n(C)n(-c2ccccc2)c1=O` was tested, and the TGI was over 100 µM.

These molecules were tested on SK-MEL-5 melanoma (assay: NCI tumour cell line growth inhibition, 48 h).
In the case of `COc1cc(C(=O)NNC(=O)c2cc(Br)ccc2NC(=O)c2cccs2)cc(OC)c1OC`, the TGI is reported as 26.7 µM. For `C[N+]12CCCCC1C(COc1cccc3cccnc13)CCC2` (configuration not stated), the TGI was over 100 µM. Molecule `Cc1ccc(S(=O)(=O)NC(=O)NCc2ccc(S(N)(=O)=O)cc2)cc1` has a TGI of over 100 µM. Molecule `NC(=O)NC1NC(=O)NC1=O` (configuration not stated) has a TGI of over 100 µM. For `CCN(CCCl)c1cc(CN(C)C)cc(NC(=O)c2ccc(C(=O)Nc3cc(CN(C)C)cc(N(CC)CCCl)c3)cc2)c1`, the TGI was 0.328 µM. `C=CCN1C(=O)/C(=C/c2ccc(Cl)cc2)N=C1SC/C=C/C` was tested, and the TGI was 82 µM. For `CC12Nc3c(Cl)cc(Cl)cc3N1C(=O)c1ccccc12` (configuration not stated), the TGI was over 100 µM. Work on `Nc1cc(Cl)cc2cc(Cl)cnc12` yielded a TGI of over 100 µM. `COC(=O)/C(C)=N/NC(=S)SC` showed a TGI of over 100 µM. For `O=C(/C=C/c1cccc([N+](=O)[O-])c1)N1CCN(CCOC(c2ccccc2)c2ccccc2)CC1`, the TGI was 28.2 µM. `CC(=O)OCC1OC(NC(=S)Nn2c(=O)[nH]c3ccccc3c2=O)C(OC(C)=O)C(OC(C)=O)C1OC(C)=O` (configuration not stated) was tested, and the TGI was over 100 µM. Work on `Cc1ccc2c(c1)C(=O)C1(C2)Cc2c(C)cccc2C1=O` (configuration not stated) yielded a TGI of over 100 µM. For `CC1=NN(c2cccc(S(=O)(=O)O)c2)C2(C1)C(Cl)C(=O)N2c1nc2ccccc2s1` (configuration not stated), the TGI was 18.8 µM. In the case of `C/C(Cl)=N/OC(=O)Nc1ccc(F)c([N+](=O)[O-])c1`, the TGI is reported as 29.2 µM. `COC(=O)C1C2OC(C)(C)OC2CN1S(=O)(=O)c1ccc(C)cc1` (configuration not stated) was tested, and the TGI was over 100 µM. `COc1ccc(CNc2ccn(C3OC(CO)C(O)C3O)c(=O)n2)cc1` (configuration not stated) showed a TGI of over 100 µM. In the case of `O=C1CSC(c2ccccc2)N1c1nc2cc3sc(N4C(=O)CSC4c4ccccc4)nc3cc2s1` (configuration not stated), the TGI is reported as over 100 µM. With `C[C@]12CCC(O)CC1=CC[C@@H]1[C@@H]2CC[C@]2(C)C(O)[C@H](n3ccnc3)C[C@@H]12` (some centres not stated) the TGI was over 100 µM. Work on `O=C(CC(O)(C(F)(F)F)C(F)(F)F)C(c1ccccc1)C(O)(C(F)(F)F)C(F)(F)F` (configuration not stated) yielded a TGI of over 100 µM. For `CCOC(=O)/C(C#N)=C/Nc1c(C)n(C)n(-c2ccccc2)c1=O`, the TGI was over 100 µM.

What follows are molecules tested on SK-OV-3 ovarian (assay: NCI tumour cell line growth inhibition, 48 h).
`COc1cc(C(=O)NNC(=O)c2cc(Br)ccc2NC(=O)c2cccs2)cc(OC)c1OC` was tested, and the TGI was 36.5 µM. `C[N+]12CCCCC1C(COc1cccc3cccnc13)CCC2` (configuration not stated) gave a TGI of over 100 µM. With `Cc1ccc(S(=O)(=O)NC(=O)NCc2ccc(S(N)(=O)=O)cc2)cc1` the TGI was over 100 µM. With `NC(=O)NC1NC(=O)NC1=O` (configuration not stated) the TGI was over 100 µM. `CCN(CCCl)c1cc(CN(C)C)cc(NC(=O)c2ccc(C(=O)Nc3cc(CN(C)C)cc(N(CC)CCCl)c3)cc2)c1` showed a TGI of 5.82 µM. Molecule `C=CCN1C(=O)/C(=C/c2ccc(Cl)cc2)N=C1SC/C=C/C` has a TGI of over 100 µM. `CC12Nc3c(Cl)cc(Cl)cc3N1C(=O)c1ccccc12` (configuration not stated) showed a TGI of over 100 µM. In the case of `Nc1cc(Cl)cc2cc(Cl)cnc12`, the TGI is reported as over 100 µM. `COC(=O)/C(C)=N/NC(=S)SC` was tested, and the TGI was over 100 µM. `O=C(/C=C/c1cccc([N+](=O)[O-])c1)N1CCN(CCOC(c2ccccc2)c2ccccc2)CC1` gave a TGI of over 100 µM. Work on `CC(=O)OCC1OC(NC(=S)Nn2c(=O)[nH]c3ccccc3c2=O)C(OC(C)=O)C(OC(C)=O)C1OC(C)=O` (configuration not stated) yielded a TGI of over 100 µM. Molecule `Cc1ccc2c(c1)C(=O)C1(C2)Cc2c(C)cccc2C1=O` (configuration not stated) has a TGI of over 100 µM. For `CC1=NN(c2cccc(S(=O)(=O)O)c2)C2(C1)C(Cl)C(=O)N2c1nc2ccccc2s1` (configuration not stated), the TGI was 24.2 µM. With `C/C(Cl)=N/OC(=O)Nc1ccc(F)c([N+](=O)[O-])c1` the TGI was 45 µM. For `COC(=O)C1C2OC(C)(C)OC2CN1S(=O)(=O)c1ccc(C)cc1` (configuration not stated), the TGI was over 100 µM. For `COc1ccc(CNc2ccn(C3OC(CO)C(O)C3O)c(=O)n2)cc1` (configuration not stated), the TGI was over 100 µM. `O=C1CSC(c2ccccc2)N1c1nc2cc3sc(N4C(=O)CSC4c4ccccc4)nc3cc2s1` (configuration not stated) was tested, and the TGI was over 100 µM. With `O=C(CC(O)(C(F)(F)F)C(F)(F)F)C(c1ccccc1)C(O)(C(F)(F)F)C(F)(F)F` (configuration not stated) the TGI was 88.8 µM. Work on `CCOC(=O)/C(C#N)=C/Nc1c(C)n(C)n(-c2ccccc2)c1=O` yielded a TGI of over 100 µM.

Each molecule was assayed on SN12C renal (assay: NCI tumour cell line growth inhibition, 48 h).
`COc1cc(C(=O)NNC(=O)c2cc(Br)ccc2NC(=O)c2cccs2)cc(OC)c1OC` gave a TGI of 60.3 µM. `C[N+]12CCCCC1C(COc1cccc3cccnc13)CCC2` (configuration not stated) showed a TGI of over 100 µM. Molecule `NC(=O)NC1NC(=O)NC1=O` (configuration not stated) has a TGI of over 100 µM. `CCN(CCCl)c1cc(CN(C)C)cc(NC(=O)c2ccc(C(=O)Nc3cc(CN(C)C)cc(N(CC)CCCl)c3)cc2)c1` showed a TGI of 1.53 µM. For `C=CCN1C(=O)/C(=C/c2ccc(Cl)cc2)N=C1SC/C=C/C`, the TGI was 71.1 µM. Work on `CC12Nc3c(Cl)cc(Cl)cc3N1C(=O)c1ccccc12` (configuration not stated) yielded a TGI of over 100 µM. `Nc1cc(Cl)cc2cc(Cl)cnc12` gave a TGI of over 100 µM. Molecule `O=C(/C=C/c1cccc([N+](=O)[O-])c1)N1CCN(CCOC(c2ccccc2)c2ccccc2)CC1` has a TGI of over 100 µM. With `CC(=O)OCC1OC(NC(=S)Nn2c(=O)[nH]c3ccccc3c2=O)C(OC(C)=O)C(OC(C)=O)C1OC(C)=O` (configuration not stated) the TGI was over 100 µM. Molecule `Cc1ccc2c(c1)C(=O)C1(C2)Cc2c(C)cccc2C1=O` (configuration not stated) has a TGI of over 100 µM. With `CC1=NN(c2cccc(S(=O)(=O)O)c2)C2(C1)C(Cl)C(=O)N2c1nc2ccccc2s1` (configuration not stated) the TGI was 19.9 µM. In the case of `C/C(Cl)=N/OC(=O)Nc1ccc(F)c([N+](=O)[O-])c1`, the TGI is reported as 19.4 µM. `COC(=O)C1C2OC(C)(C)OC2CN1S(=O)(=O)c1ccc(C)cc1` (configuration not stated) was tested, and the TGI was over 100 µM. `COc1ccc(CNc2ccn(C3OC(CO)C(O)C3O)c(=O)n2)cc1` (configuration not stated) gave a TGI of over 100 µM. In the case of `O=C1CSC(c2ccccc2)N1c1nc2cc3sc(N4C(=O)CSC4c4ccccc4)nc3cc2s1` (configuration not stated), the TGI is reported as over 100 µM. For `C[C@]12CCC(O)CC1=CC[C@@H]1[C@@H]2CC[C@]2(C)C(O)[C@H](n3ccnc3)C[C@@H]12` (some centres not stated), the TGI was over 100 µM. `CCOC(=O)/C(C#N)=C/Nc1c(C)n(C)n(-c2ccccc2)c1=O` was tested, and the TGI was over 100 µM.

These molecules were tested on SNB-19 CNS (assay: NCI tumour cell line growth inhibition, 48 h).
`COc1cc(C(=O)NNC(=O)c2cc(Br)ccc2NC(=O)c2cccs2)cc(OC)c1OC` gave a TGI of 74.3 µM. `C[N+]12CCCCC1C(COc1cccc3cccnc13)CCC2` (configuration not stated) showed a TGI of over 100 µM. `Cc1ccc(S(=O)(=O)NC(=O)NCc2ccc(S(N)(=O)=O)cc2)cc1` gave a TGI of over 100 µM. `NC(=O)NC1NC(=O)NC1=O` (configuration not stated) showed a TGI of over 100 µM. With `CCN(CCCl)c1cc(CN(C)C)cc(NC(=O)c2ccc(C(=O)Nc3cc(CN(C)C)cc(N(CC)CCCl)c3)cc2)c1` the TGI was 0.936 µM. In the case of `C=CCN1C(=O)/C(=C/c2ccc(Cl)cc2)N=C1SC/C=C/C`, the TGI is reported as over 100 µM. Work on `Nc1cc(Cl)cc2cc(Cl)cnc12` yielded a TGI of over 100 µM. `O=C(/C=C/c1cccc([N+](=O)[O-])c1)N1CCN(CCOC(c2ccccc2)c2ccccc2)CC1` gave a TGI of over 100 µM. Work on `CC(=O)OCC1OC(NC(=S)Nn2c(=O)[nH]c3ccccc3c2=O)C(OC(C)=O)C(OC(C)=O)C1OC(C)=O` (configuration not stated) yielded a TGI of over 100 µM. Work on `Cc1ccc2c(c1)C(=O)C1(C2)Cc2c(C)cccc2C1=O` (configuration not stated) yielded a TGI of over 100 µM. `CC1=NN(c2cccc(S(=O)(=O)O)c2)C2(C1)C(Cl)C(=O)N2c1nc2ccccc2s1` (configuration not stated) gave a TGI of 27 µM. For `C/C(Cl)=N/OC(=O)Nc1ccc(F)c([N+](=O)[O-])c1`, the TGI was 37.3 µM. With `COC(=O)C1C2OC(C)(C)OC2CN1S(=O)(=O)c1ccc(C)cc1` (configuration not stated) the TGI was over 100 µM. Molecule `COc1ccc(CNc2ccn(C3OC(CO)C(O)C3O)c(=O)n2)cc1` (configuration not stated) has a TGI of over 100 µM. For `O=C1CSC(c2ccccc2)N1c1nc2cc3sc(N4C(=O)CSC4c4ccccc4)nc3cc2s1` (configuration not stated), the TGI was over 100 µM. Work on `C[C@]12CCC(O)CC1=CC[C@@H]1[C@@H]2CC[C@]2(C)C(O)[C@H](n3ccnc3)C[C@@H]12` (some centres not stated) yielded a TGI of over 100 µM. `O=C(CC(O)(C(F)(F)F)C(F)(F)F)C(c1ccccc1)C(O)(C(F)(F)F)C(F)(F)F` (configuration not stated) was tested, and the TGI was over 100 µM.

These molecules were tested on SR leukemia (assay: NCI tumour cell line growth inhibition, 48 h).
Molecule `COc1cc(C(=O)NNC(=O)c2cc(Br)ccc2NC(=O)c2cccs2)cc(OC)c1OC` has a TGI of over 100 µM. `C[N+]12CCCCC1C(COc1cccc3cccnc13)CCC2` (configuration not stated) was tested, and the TGI was over 100 µM. For `Cc1ccc(S(=O)(=O)NC(=O)NCc2ccc(S(N)(=O)=O)cc2)cc1`, the TGI was over 100 µM. With `NC(=O)NC1NC(=O)NC1=O` (configuration not stated) the TGI was over 100 µM. Work on `CCN(CCCl)c1cc(CN(C)C)cc(NC(=O)c2ccc(C(=O)Nc3cc(CN(C)C)cc(N(CC)CCCl)c3)cc2)c1` yielded a TGI of 18.1 µM.
